Bridge positions count the residues as written; N and C are the ends. Square brackets hold non-standard residues; d marks the D form. Peptide text beside a SMILES is read from it. * marks the point of attachment. Ileψ(thiazoline)Cys = CC[C@H](C)[C@H](N)C1=N[C@H](C(=O)*)CS1; dOrn = NCCC[C@@H](N)C(=O)O
How the values were obtained:
[1] = system: HSV-2 (strain HG-52); test: Inhibition of HSV-2 replication in serum-starved BHK 21/C13 cells (cell culture technique, virus titration); assay type: cell-based; settings: for PFU per cell for control/PFU per cell for agent: 30 hours post infection; for PFU PER CELL: infected BHK 21/C13 cells harvested 30 hours post infection, control 67.00
Protocol: This method in a modified form is exemplified hereinafter.
(a) Preparation of serum-starved cells: A medium composed of alpha medium (Gibco Canada Inc, Burlington, Ontario, Canada) and fetal calf serum (Gibco Canada Inc.), in a 9:1 volume ratio, was placed in tissue culture dishes (35 mm, A/S Nunc, Kamstrup, Denmark). The medium in each dish was seeded with BHK 21/C13 cells (1.5 ×10^6 for each dish). (BHK 21/C13 cells have been described by Y. Langelier and G. Buttin, J. Gen. Virol., 57, 21 (1981)). After 6 hours, the medium was replaced with a new medium composed of alpha medium and fetal calf serum (99.5:0.5 v/v). The resultant preparation was incubated at 37° C. for 4 days.
(b) Cell infection in BBMT medium* without serum: The incubation medium was removed from the cells. The cells were washed twice with alpha medium (without the serum) and once with the BBMT medium. The cells were then incubated at 37° C. in BBMT medium for two hours. A series of viral solutions were prepared from a stock of HSV-2 (strain HG-52, described by Langelier and Buttin, supra) and the appropriate choice and amounts of the agents to be tested, diluted with BBMT to give viral solutions having a multiplicity of infection of 0.02 plaque forming units (PFU) per cell. A control viral solution (without any agent) also was prepared. Each viral solution (250 μl) was added to duplicate dishes containing the previously prepared cells in BBMT medium. After one hour of incubation at 37° C. for virus absorption, the medium in each dish was removed by aspiration. The cells were washed twice with BBMT medium. Fresh BBMT medium (800 μl), with or without (control) the appropriate concentration of the test agent, was added to the dishes which were further incubated at 37° C. Every six hours, a concentrated solution of bacitracin in BBMT was added to the appropriate dishes to maintain the initial concentration of that agent.
*BBMT medium is described by P. Brazeau et al., Proc. Natl. Acad. Sci. USA, 79, 7909 (1982).
(c) Harvesting: At 30 hours post-infection, cells were detached with a rubber policeman and frozen at -80° C. until titration.
(d) Titration: Virus titration were performed according to the method of B. B. Wentworth and L. French, Proc. Soc. Exp. Biol. Med., 131, 588 (1969).
The following table is illustrative of the results obtained when acyclovir, bacitracin and combinations thereof were tested for activity according to the preceding method. Results are expressed in PFU per cell for infected cells harvested at 30 hours post infection. The lower the PFU per cell value, the greater the inhibitory effect on viral replication of the tested agent.

[2] = system: herpes simplex virus type 1 (HSV-1); settings: bacitracin used alone; reported by Alarcon et al.; cited from earlier work

In the case of Nc1nc2c(ncn2COCCO)c(=O)[nH]1 [Acyclovir, 9-((2-hydroxyethoxy)methyl)guanine], the “PFU per cell for control/PFU per cell for agent” value (from here on “PFU per cell for control/PFU”) ([1]; Acyclovir 0.50 μM) is reported as 3.96, the “PFU PER CELL” value ([1]; Acyclovir 0.50 μM) is reported as 16.9 PFU per cell and the “PFU per cell for control/PFU” value ([1]; Acyclovir 2.00 μM) is reported as 13.67. The “PFU PER CELL” value ([1]; Acyclovir 2.00 μM) was 4.9 PFU per cell.
In the case of CC[C@H](C)[C@H](N)C1=N[C@H](C(=O)N[C@@H](CC(C)C)C(=O)N[C@H](CCC(=O)O)C(=O)N[C@H](C(=O)N[C@H]2CCCCNC(=O)[C@H](CC(N)=O)NC(=O)[C@@H](CC(=O)O)NC(=O)[C@H](Cc3cnc[nH]3)NC(=O)[C@@H](Cc3ccccc3)NC(=O)[C@H]([C@@H](C)CC)NC(=O)[C@@H](CCCN)NC2=O)[C@@H](C)CC)CS1 [Bacitracin] ({Ileψ(thiazoline)Cys}-L[dE]IK[dOrn]I[dF]H[dD]N; lactam 4-C), the “activity against herpes simplex virus type 1 (HSV-1)” value [2] is given as “inactive”, the “PFU per cell for control/PFU” value ([1]; Bacitracin 0.25 mM) is given as 62.0 and the “PFU PER CELL” value ([1]; Bacitracin 0.25 mM) is given as 1.08 PFU per cell. For the same compound, the “PFU per cell for control/PFU” value ([1]; Bacitracin 0.50 mM) was 515.0, the “PFU PER CELL” value ([1]; Bacitracin 0.50 mM) was 0.13 PFU per cell and the “PFU per cell for control/PFU” value ([1]; Bacitracin 0.75 mM) was 4786.0. For the same compound, the “PFU PER CELL” value ([1]; Bacitracin 0.75 mM) was 0.014 PFU per cell, the “PFU per cell for control/PFU” value ([1]; Bacitracin 1.00 mM) was 8375.0 and the “PFU PER CELL” value ([1]; Bacitracin 1.00 mM) was 0.008 PFU per cell.

Source: patent US5002932A, “Antiviral pharmaceutical compositions and method of treating herpes” (priority 1987, dated 1991)
